The values below are quoted from earlier work in article PMC7993274 (Clinical and Translational Science, 2020).

SMILES strings stand for the structures.

For series [1] the following is noted: patients with rheumatoid arthritis (N = 3,492); cited from earlier work.
The conditions of series [2]: levels peaking 2 weeks post‐treatment; cited from earlier work.

As to `CCS(=O)(=O)N1CC(CC#N)(n2cc(-c3ncnc4[nH]ccc34)cn2)C1` [baricitinib], the “venous thromboembolism incidence rate” value in series [1] was 0.5 per 100 patient‐years. For the same molecule, the “effect on platelet counts” value in series [2] is “transiently increase platelet counts”.
